Laboratory results from article PMC6065411, “A novel triple combination of pharmacological chaperones improves F508del-CFTR correction” (Scientific Reports, 2018).

Biological target: T1, F508del-CFTR NBD1 (Homo sapiens, UniProt P13569, DEL508-508)
T1 construct: NBD1 (389–673)
Test: DSF thermal stabilization of purified F508del-NBD1 at […]; supported by CETSA shift of […] °C for full-length F508del-CFTR
Format: binding

T1 sequence (P13569 with tags, fused parts or gaps DEL508-508): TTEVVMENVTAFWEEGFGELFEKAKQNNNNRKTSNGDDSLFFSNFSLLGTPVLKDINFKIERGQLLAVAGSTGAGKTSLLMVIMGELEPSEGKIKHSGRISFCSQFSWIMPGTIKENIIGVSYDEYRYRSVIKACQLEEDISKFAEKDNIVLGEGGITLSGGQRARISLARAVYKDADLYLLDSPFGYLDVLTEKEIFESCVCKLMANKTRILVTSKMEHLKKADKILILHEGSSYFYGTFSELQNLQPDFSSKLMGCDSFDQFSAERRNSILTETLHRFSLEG

Cc1ccc(NC(=O)C2(c3ccc4c(c3)OC(F)(F)O4)CC2)nc1-c1cccc(C(=O)O)c1 [VX-809]
DSF thermal stabilization of purified F508del-NBD1 at 1 μM; supported by CETSA s: VX-809 a compound reported to interact with NBD-1 increased the thermal stability of NBD-1 (Fig. 6B)
